pIC50: −log10 of the molar value.
Columns and labels:
[1] = biological target: T1, Avi-KRAS G12D (1-169) GppNHp/RAF1 RBD-3xFLAG (52-151) (Homo sapiens, UniProt P01116, G12D); assay: Raf1-KRAS G12D-GppNHP disruption HTRF assay (Biological Example 1); assay type: binding
T1 construct: Avi-KRAS G12D (1-169)
In short: (§1)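 Measured with a KRAS/RAF1 HTRF assay at pH 7.5 in 10% DMSO, with two 1 h room-temperature incubations with shaking.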

[2] = biological target: T2, Avi-KRAS WT (1-169) GppNHp/RAF1 RBD-3xFLAG (52-151) (Homo sapiens, UniProt P01116); assay: Raf1-KRAS WT-GppNHP disruption HTRF assay (Biological Example 1); assay type: binding
T2 construct: Avi-KRAS WT (1-169)
T2 sequence (P01116 1-169 isoform P01116-2): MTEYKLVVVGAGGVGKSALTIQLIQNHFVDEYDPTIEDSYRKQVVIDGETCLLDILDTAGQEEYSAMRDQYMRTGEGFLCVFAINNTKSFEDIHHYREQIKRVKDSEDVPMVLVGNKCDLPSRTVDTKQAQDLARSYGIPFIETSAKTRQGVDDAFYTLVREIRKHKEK
In short: as §1

[3] = tested on: SW620 cells (KRAS G12V); assay: Cell-based pERK HTRF assay in SW620 cell (Biological Example 4)
In short: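 This assay measures inhibition of ERK phosphorylation downstream of KRAS G12V in intact SW620 cells. Compounds are applied for 4 h over nine half-log concentrations starting at 1 μM, and pERK is quantified by HTRF.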

[4] = Homo sapiens, SW-620, SW620 (KRAS G12V) cells
[5] = SW620 (KRAS G12V) cells, pERK HTRF
[6] = KRAS G12D, GppNHp-loaded, class symbols
[7] = KRAS WT, GppNHp-loaded, class symbols
[8] = Homo sapiens, SW-620, SW620 (KRAS G12V) cells, pERK HTRF, class symbols
[9] = Homo sapiens, SW-620, SW620 (KRAS G12V) cells, pERK HTRF

T1 sequence (P01116 1-169 isoform P01116-2 G12D): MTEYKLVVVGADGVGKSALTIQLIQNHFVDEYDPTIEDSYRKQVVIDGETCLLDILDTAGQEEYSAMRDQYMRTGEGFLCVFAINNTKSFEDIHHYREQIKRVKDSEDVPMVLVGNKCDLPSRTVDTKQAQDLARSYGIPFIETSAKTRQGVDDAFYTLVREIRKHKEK

| Compound | pIC50 ([1]; KRAS G12D-GppNHp/RAF1 RBD HTRF) | pIC50 ([2]; KRAS WT-GppNHp/RAF1 RBD HTRF) | pIC50 [3, 4] | pIC50 [3, 5] | pIC50 [1, 6] | pIC50 [2, 7] | pIC50 [3, 8] | pIC50 ([3]; SW620 (KRAS G12V) cells) | pIC50 [3, 9] | pIC50 ([1]; KRAS G12D, GppNHp-loaded, Table 11) | pIC50 ([2]; KRAS WT, GppNHp-loaded, Table 11) |
| --- | --- | --- | --- | --- | --- | --- | --- | --- | --- | --- | --- |
| C[C@@H]1[C@H](N(C)c2nc(OC[C@@]34CCCN3C[C@H](F)C4)nc3c(F)c(-c4ccc(F)c5sc(N)c(C#N)c45)c(C(F)(F)F)cc23)CCN1C(=O)C1CC1 (atropisomer, axis not shown) [Compound 333] | > 7.00 | > 7.00 | > 7.00 | > 7.00 | – | – | – | – | – | – | – |
| CCC(=O)N1CC[C@@H](N(C)c2nc(OC[C@@]34CCCN3C[C@H](F)C4)nc3c(F)c(-c4ccc(F)c5sc(N)c(C#N)c45)c(C(F)(F)F)cc23)[C@H]1C (atropisomer, axis not shown) [Compound 335] | > 7.00 | > 7.00 | > 7.00 | > 7.00 | – | – | – | – | – | – | – |
| CCN(c1nc(OC[C@@]23CCCN2C[C@H](F)C3)nc2c(F)c(-c3ccc(F)c4sc(N)c(C#N)c34)c(C(F)(F)F)cc12)[C@H]1CCN(C(=O)[C@H]2CCO2)C1 (atropisomer, axis not shown) [Compound 577] | – | – | > 7.00 | – | > 7.00 | > 7.00 | > 7.00 | – | – | – | – |
| C[C@H](c1cccnc1N)N(C)c1nc(OC[C@@]23CCCN2C[C@H](F)C3)nc2c(F)c(-c3ccc(F)c4sc(N)c(C#N)c34)c(C(F)(F)F)cc12 (atropisomer, axis not shown) [Compound 600] | – | – | > 7.00 | – | > 7.00 | > 7.00 | > 7.00 | – | – | – | – |
| CCN(c1nc(OC[C@@]23CCCN2C[C@H](F)C3)nc2c(F)c(-c3ccc(F)c4sc(N)c(C#N)c34)c(C(F)(F)F)cc12)[C@H]1CCN(C(=O)[C@@H]2CCO2)C1 (atropisomer, axis not shown) [Compound 603] | – | – | > 7.00 | – | > 7.00 | > 7.00 | > 7.00 | – | – | – | – |
| CCN(c1nc(OC[C@@]23CCCN2C[C@H](F)C3)nc2c(F)c(-c3ccc(F)c4sc(N)c(C#N)c34)c(C(F)(F)F)cc12)[C@H]1C[C@@H]2CN(C)C(=O)N2C1 (atropisomer, axis not shown) [Compound 605] | – | – | > 7.00 | – | > 7.00 | > 7.00 | > 7.00 | – | – | – | – |
| CCN(c1nc(OC[C@@]23CCCN2C[C@H](F)C3)nc2c(F)c(-c3ccc(F)c4sc(N)c(C#N)c34)c(C(F)(F)F)cc12)[C@H]1CCN(C(=O)N2CC(OC)C2)C1 (atropisomer, axis not shown) [Compound 607] | – | – | > 7.00 | – | > 7.00 | > 7.00 | > 7.00 | – | – | – | – |
| CC(=O)N1CC[C@H](N(c2nc(OC[C@@]34CCCN3C[C@H](F)C4)nc3c(F)c(-c4ccc(F)c5sc(N)c(C#N)c45)c(C(F)(F)F)cc23)C2CC2)C1 (atropisomer, axis not shown) [Compound 608] | – | – | > 7.00 | – | > 7.00 | 6.00 to 7.00 | > 7.00 | – | – | – | – |
| CCN(c1nc(OC[C@@]23CCCN2C[C@H](F)C3)nc2c(F)c(-c3ccc(F)c4sc(N)c(C#N)c34)c(C(F)(F)F)cc12)[C@H]1CCN(C(=O)CC(F)F)C1 (atropisomer, axis not shown) [Compound 611] | – | – | > 7.00 | – | > 7.00 | > 7.00 | > 7.00 | – | – | – | – |
| CCN(c1nc(OC[C@@]23CCCN2C[C@H](F)C3)nc2c(F)c(-c3ccc(F)c4sc(N)c(C#N)c34)c(C(F)(F)F)cc12)[C@H]1CC(=O)N(CC(F)F)C1 (atropisomer, axis not shown) [Compound 613] | – | – | > 7.00 | – | 6.00 to 7.00 | 6.00 to 7.00 | > 7.00 | – | – | – | – |
| CCN(c1nc(OC[C@@]23CCCN2C[C@H](F)C3)nc2c(F)c(-c3ccc(F)c4sc(N)c(C#N)c34)c(C(F)(F)F)cc12)[C@H]1CC(=O)N(C)C1 (atropisomer, axis not shown) [Compound 614] | – | – | > 7.00 | – | > 7.00 | > 7.00 | > 7.00 | – | – | – | – |
| CCN(c1nc(OC[C@@]23CCCN2C[C@H](F)C3)nc2c(F)c(-c3ccc(F)c4sc(N)c(C#N)c34)c(C(F)(F)F)cc12)[C@H]1CC(=O)N(C2CC2)C1 (atropisomer, axis not shown) [Compound 615] | – | – | > 7.00 | – | > 7.00 | > 7.00 | > 7.00 | – | – | – | – |
| CCN(c1nc(OC[C@@]23CCCN2C[C@H](F)C3)nc2c(F)c(-c3ccc(F)c4sc(N)c(C#N)c34)c(C(F)(F)F)cc12)[C@H]1CCN(C(=O)N2CCN(C(C)=O)CC2)C1 (atropisomer, axis not shown) [Compound 619] | – | – | > 7.00 | – | > 7.00 | > 7.00 | > 7.00 | – | – | – | – |
| CC(=O)N1CC[C@H](N(CCF)c2nc(OC[C@@]34CCCN3C[C@H](F)C4)nc3c(F)c(-c4ccc(F)c5sc(N)c(C#N)c45)c(C(F)(F)F)cc23)C1 (atropisomer, axis not shown) [Compound 622] | – | – | > 7.00 | – | > 7.00 | > 7.00 | > 7.00 | – | – | – | – |
| CCN1C[C@@H](N(C)c2nc(OC[C@@]34CCCN3C[C@H](F)C4)nc3c(F)c(-c4ccc(F)c5sc(N)c(C#N)c45)c(C(F)(F)F)cc23)CC1=O (atropisomer, axis not shown) [Compound 636] | – | – | > 7.00 | – | > 7.00 | > 7.00 | > 7.00 | – | – | – | – |
| CCN(c1nc(OC[C@@]23CCCN2C[C@H](F)C3)nc2c(F)c(-c3ccc(F)c4sc(N)c(C#N)c34)c(C(F)(F)F)cc12)[C@H]1CCN(C(=O)C2CN(C(C)=O)C2)C1 (atropisomer, axis not shown) [Compound 638] | – | – | > 7.00 | – | > 7.00 | > 7.00 | > 7.00 | – | – | – | – |
| C=C(C)C(=O)N1CC[C@H](N(CC)c2nc(OC[C@@]34CCCN3C[C@H](F)C4)nc3c(F)c(-c4ccc(F)c5sc(N)c(C#N)c45)c(C(F)(F)F)cc23)C1 (atropisomer, axis not shown) [Compound 673] | – | – | > 7.00 | – | > 7.00 | > 7.00 | > 7.00 | – | – | – | – |
| CCN(c1nc(OC[C@@]23CCCN2C[C@H](F)C3)nc2c(F)c(-c3ccc(F)c4sc(N)c(C#N)c34)c(C(F)(F)F)cc12)[C@H]1CCN(C(=O)O[C@@H]2CCOC2)C1 (atropisomer, axis not shown) [Compound 683] | – | – | > 7.00 | – | > 7.00 | > 7.00 | > 7.00 | – | – | – | – |
| CCN(c1nc(OC[C@@]23CCCN2C[C@H](F)C3)nc2c(F)c(-c3ccc(F)c4sc(N)c(C#N)c34)c(C(F)(F)F)cc12)[C@H]1CCN(C(=O)[C@@H]2C[C@@H]2C)C1 (atropisomer, axis not shown) [Compound 689] | – | – | > 7.00 | – | > 7.00 | 6.00 to 7.00 | > 7.00 | – | – | – | – |
| CCN(c1nc(OC[C@@]23CCCN2C[C@H](F)C3)nc2c(F)c(-c3ccc(F)c4sc(N)c(C#N)c34)c(C(F)(F)F)cc12)[C@@H]1CC(=O)N(C2CC2)C1 (atropisomer, axis not shown) [Compound 703] | – | – | – | – | 6.00 to 7.00 | 6.00 to 7.00 | > 7.00 | > 7.00 | – | – | – |
| CCN(c1nc(OC[C@@]23CCCN2C[C@H](F)C3)nc2c(F)c(-c3ccc(F)c4sc(N)c(C#N)c34)c(C(F)(F)F)cc12)[C@H]1CCN(C(=O)c2ccns2)C1 (atropisomer, axis not shown) [Compound 726] | – | – | > 7.00 | – | > 7.00 | > 7.00 | > 7.00 | – | – | – | – |
| CCN(c1nc(OC[C@@]23CCCN2C[C@H](F)C3)nc2c(F)c(-c3ccc(F)c4sc(N)c(C#N)c34)c(C(F)(F)F)cc12)[C@H]1CCN(C(=O)N(C)C)[C@@H]1C (atropisomer, axis not shown) [Compound 749] | – | – | > 7.00 | – | > 7.00 | > 7.00 | > 7.00 | – | – | – | – |
| CCN(c1nc(OC[C@@]23CCCN2C[C@H](F)C3)nc2c(F)c(-c3ccc(F)c4sc(N)c(C#N)c34)c(C(F)(F)F)cc12)[C@H]1C[C@@H](C)N(C(=O)[C@H]2CCO2)C1 (atropisomer, axis not shown) [Compound 752] | – | – | > 7.00 | – | > 7.00 | 6.00 to 7.00 | > 7.00 | – | – | – | – |
| CCN(c1nc(OC[C@@]23CCCN2C[C@H](F)C3)nc2c(F)c(-c3ccc(F)c4sc(N)c(C#N)c34)c(C(F)(F)F)cc12)[C@H]1C[C@H]2CCC(=O)N2C1 (atropisomer, axis not shown; (aR)) [Compound 573, 2-amino-4-((S)-4-(ethyl((2S,7aR)-5-oxohexahydro-1H-pyrrolizin-2-yl)amino)-8-fluoro-2-(((2R,7aS)-2-fluorotetrahydro-1H-pyrrolizin-7a(5H)-yl)methoxy)-6-(trifluoromethyl)quinazolin-7-yl)-7-fluorobenzo[b]thiophene-3-carbonitrile] | – | – | > 7.00 | – | > 7.00 | > 7.00 | > 7.00 | – | – | – | – |
| N#Cc1c(N)sc2c(F)ccc(-c3c(C(F)(F)F)cc4c(N5C[C@H]6C[C@@H]5CO6)nc(OC[C@@]56CCCN5C[C@H](F)C6)nc4c3F)c12 (single isomer, unassigned) [Compound 287] | 6.00 to 7.00 | 6.00 to 7.00 | > 7.00 | – | – | – | – | – | > 7.00 | – | – |
| N#Cc1c(N)sc2c(F)ccc(-c3c(C(F)(F)F)cc4c(N5CC6CC(C5)O6)nc(OC[C@@]56CCCN5C[C@H](F)C6)nc4c3F)c12 [Compound 145] | – | – | > 7.00 | – | – | – | – | – | > 7.00 | 6.00 to 7.00 | 6.00 to 7.00 |

Source: patent publication US20260042764A1, “COMPOSITIONS AND METHODS FOR INHIBITION OF KRAS” (TheRas, Inc., priority 2022, published 2026)
